Experimental data as given in BindingDB's records for doi:10.1016/j.bmcl.2007.08.017 (Johnson & Johnson Pharmaceutical Research and Development, 2007).

experiment: Binding affinity at human histamine H3

Structure (SMILES)	Ki
CSc1ccc(C2CN(C)Cc3cc(Oc4cc(CN5CCCCC5)ccn4)ccc32)cc1 (configuration not stated) [2-methyl-4-(4-(methylthio)phenyl)-7-(4-(piperidin-1-ylmethyl)pyridin-2-yloxy)-1,2,3,4-tetrahydroisoquinoline]	34.3 nM
CSc1ccc(C2CN(C)Cc3cc(Oc4ccc(CN5CCOCC5)cn4)ccc32)cc1 (configuration not stated) [2-methyl-4-(4-(methylthio)phenyl)-7-(5-(morpholinomethyl)pyridin-2-yloxy)-1,2,3,4-tetrahydroisoquinoline]	260 nM
CSc1ccc(C2CN(C)Cc3cc(Oc4cncc(CN5CCCCC5)c4)ccc32)cc1 (configuration not stated) [2-methyl-4-(4-(methylthio)phenyl)-7-(5-(piperidin-1-ylmethyl)pyridin-3-yloxy)-1,2,3,4-tetrahydroisoquinoline]	109 nM
CN(C)CCC(Oc1ccccc1)c1ccc(OCCCN2CCCCC2)cc1 (configuration not stated) [N,N-dimethyl-3-phenoxy-3-(4-(3-(piperidin-1-yl)propoxy)phenyl)propan-1-amine]	0.72 nM
CSc1ccc(C2CN(C)Cc3cc(Oc4cccc(CN5CCCCC5)n4)ccc32)cc1 (configuration not stated) [2-methyl-4-(4-(methylthio)phenyl)-7-(6-(piperidin-1-ylmethyl)pyridin-2-yloxy)-1,2,3,4-tetrahydroisoquinoline]	51 nM
CSc1ccc(C2CN(C)Cc3cc(Oc4ccnc(CN5CCCCC5)c4)ccc32)cc1 (configuration not stated) [2-methyl-4-(4-(methylthio)phenyl)-7-(2-(piperidin-1-ylmethyl)pyridin-4-yloxy)-1,2,3,4-tetrahydroisoquinoline]	323 nM
CSc1ccc(C2CN(C)Cc3cc(Oc4ccc(CN5CCCCC5)nc4)ccc32)cc1 (configuration not stated) [2-methyl-4-(4-(methylthio)phenyl)-7-(6-(piperidin-1-ylmethyl)pyridin-3-yloxy)-1,2,3,4-tetrahydroisoquinoline]	24.3 nM
CSc1ccc(C2CN(C)Cc3cc(Oc4ccc(CN5CCCCC5)cn4)ccc32)cc1 (configuration not stated) [2-methyl-4-(4-(methylthio)phenyl)-7-(5-(piperidin-1-ylmethyl)pyridin-2-yloxy)-1,2,3,4-tetrahydroisoquinoline]	8.2 nM
CSc1ccc(C2CN(C)Cc3cc(Oc4ccc(CN5CCCCC5)cc4)ccc32)cc1 (configuration not stated) [2-methyl-4-(4-(methylthio)phenyl)-7-(4-(piperidin-1-ylmethyl)phenoxy)-1,2,3,4-tetrahydroisoquinoline]	22.7 nM
CSc1ccc(C2CN(C)Cc3cccc(Oc4cncc(CN5CCCCC5)c4)c32)cc1 (configuration not stated) [2-methyl-4-(4-(methylthio)phenyl)-5-(5-(piperidin-1-ylmethyl)pyridin-3-yloxy)-1,2,3,4-tetrahydroisoquinoline]	511 nM
CSc1ccc(C2CN(C)Cc3cccc(Oc4ccnc(CN5CCCCC5)c4)c32)cc1 (configuration not stated) [2-methyl-4-(4-(methylthio)phenyl)-5-(2-(piperidin-1-ylmethyl)pyridin-4-yloxy)-1,2,3,4-tetrahydroisoquinoline]	265 nM
CSc1ccc(C2CN(C)Cc3cc(Oc4ccc(CN5CCC(F)CC5)cn4)ccc32)cc1 (configuration not stated) [7-(5-((4-fluoropiperidin-1-yl)methyl)pyridin-2-yloxy)-2-methyl-4-(4-(methylthio)phenyl)-1,2,3,4-tetrahydroisoquinoline]	110 nM
CSc1ccc(C2CN(C)Cc3cc(Oc4nc(CN5CCCCC5)cs4)ccc32)cc1 (configuration not stated) [2-methyl-4-(4-(methylthio)phenyl)-7-(4-(piperidin-1-ylmethyl)thiazol-2-yloxy)-1,2,3,4-tetrahydroisoquinoline]	20.7 nM
COc1ccc(C2CN(C)Cc3cc(OCCCN4CCCCC4)ncc32)cc1 (configuration not stated) [4-(4-methoxyphenyl)-2-methyl-7-(3-(piperidin-1-yl)propoxy)-1,2,3,4-tetrahydro-2,6-naphthyridine]	12 nM
CSc1ccc(C2CN(C)Cc3cccc(Oc4cccc(CN5CCCCC5)c4)c32)cc1 (configuration not stated) [2-methyl-4-(4-(methylthio)phenyl)-5-(3-(piperidin-1-ylmethyl)phenoxy)-1,2,3,4-tetrahydroisoquinoline]	253 nM
CSc1ccc(C2CN(C)Cc3cc(Oc4nc(CN5CCOCC5)cs4)ccc32)cc1 (configuration not stated) [2-methyl-4-(4-(methylthio)phenyl)-7-(4-(morpholinomethyl)thiazol-2-yloxy)-1,2,3,4-tetrahydroisoquinoline]	201 nM
CSc1ccc(C2CN(C)Cc3cc(Oc4ncc(CN5CCCCC5)s4)ccc32)cc1 (configuration not stated) [2-methyl-4-(4-(methylthio)phenyl)-7-(5-(piperidin-1-ylmethyl)thiazol-2-yloxy)-1,2,3,4-tetrahydroisoquinoline]	20.7 nM
